Experimental data: patent publication US5795860A, “Analogs for specific oligosaccharide-protein interactions and uses therefor” (Repligen Corporation, priority 1994, dated 1998)
Blank lines part the entries; values can stand above or below the molecule they belong to.

What was measured:
[1] = tested on: "Glyceptor" sequence-effector molecule interactions; experiment: interference with "Glyceptor" sequence-effector molecule interactions; assay type: binding
[2] = heparin-agarose column, NaCl gradient elution; assay type: binding; conditions: NaCl gradient 0.125M up to 1M; 50 mM Tris
Method: A mutant IL-8 gene is synthesized in which the ELR sequence at positions 4-6 (Seq. ID No. 1) is modified to glu-leu-gln (ELQ). The modified gene is expressed in E. coli by standard techniques well known to those skilled in the art and the protein product is extracted from the lysed cell pellet with 6M guanidine-HCl. The extract is dialyzed against 50 mM Tris, 0.125M NaCl and passed over a heparin-agarose column. […] The mutant chemokine is eluted from the column at about 0.6-0.7M salt.

[3] = tested on: neutrophils; experiment: activation or attraction of neutrophils; assay type: cell-based
[4] = affinity coelectrophoresis of ELQ-IL-8 with heparin; assay type: binding; conditions: compared with native IL-8
Text: Commercial heparin (porcine mucosa, Sigma Biochemical) is radioactively labeled by first incorporating tyramine at the reducing end of the chains and then introducing radioactive iodine using the chloramine T reaction, a procedure well known in the art. The heparin is size fractionated on a Sephadex G-100 column (Pharmacia) and the last 10% of the heparin to elute is selected and utilized for the labeling. The labeled low molecular weight heparin is then bound to varying concentrations of IL-8 under equilibrium conditions using the technique of affinity coelectrophoresis, as described by Lee and Lander, Proc. Nat. Acad. Sci., U.S.A. (1991) 88, 2768-2772. Briefly, a horizontal 1% agarose gel is poured, using low melting point agarose, that contains nine rectangular wells of equal dimensions (about 3×10 mm). The buffer used comprises 125 mM sodium acetate, 50 mM MOPSO, pH 7.0. 0.5% 3-[3-cholamidopropyl) dimethylammonio]-1-propanesulfonate (CHAPS) may be used in the buffer to prevent adventitious binding of protein to vessel walls. The wells in the horizontal gel are subsequently filled with a requisite amount of 1% agarose which contains varying concentrations of IL-8 ranging from about 80 nM up to about 80 μM. The IL-8 may be produced by recombinant means as is well known in the art or may alternatively be produced as a synthetic peptide. […]

[5] = affinity coelectrophoresis of ELQ-IL-8 with heparan sulfate; assay type: binding; conditions: compared with native IL-8
[6] = tested on: "Glyceptor" sequences on post-capillary endothelium of human dermal tissue; experiment: binding of 125I-labeled chemokine to human dermal tissue, microscopic autoradiography; conditions: for binding of 125I-labeled chemokine to vasculature / post-capillary endothelium: microscopic autoradiography
Method: A sample of human dermal tissue of about 1 mm^3 is incubated with ^125 I-labeled human IL-8 as described in the art (see, e.g., Rot, A. (1992) Cytokine 4, 347, the disclosure of which is incorporated herein by reference).

[7] = tested on: IL-8; experiment: IL-8 mediated inflammation, influx of polymorphonuclear leukocytes into the peritoneal cavity; assay type: in vivo, mouse; conditions: protamine chloride 100-250 mg i.v. (tail vein), IL-8 i.p.
Method: Typically about 50-100 μl of a sample of 1-2 μg of HAHBS suspended in phosphate buffered saline (PBS) or alternatively an equivalent amount of PBS alone is injected into the tail vein of a mouse at the same time that 1 μg of IL-8 is introduced into the peritoneal cavity. After 3 hours the peritoneal cavity is lavaged and the infiltrated cells are counted.
After 3 hours the peritoneal cavity is lavaged and the infiltrated cells are counted.
Typically a dose of 100-250 mg is suspended in PBS and injected into the tail vein of the mice. IL-8 is again injected into the peritoneal cavity.

[8] = toxicity of protamine

Molecule: Cc1ccc(C(=O)Nc2ccc(S(=O)(=O)O)c3cc(S(=O)(=O)O)cc(S(=O)(=O)O)c23)cc1NC(=O)c1cccc(NC(=O)Nc2cccc(C(=O)Nc3cc(C(=O)Nc4ccc(S(=O)(=O)O)c5cc(S(=O)(=O)O)cc(S(=O)(=O)O)c45)ccc3C)c2)c1 [suramin]
interference with "Glyceptor" sequence-effector molecule interactions [1]: interferes with "Glyceptor" sequence-effector molecule interactions

binding of labeled native IL-8 to vasculature in presence of ELQ-IL-8 ([6]; 10 fold excess over radiolabeled native IL-8, ex vivo): substantially reduced
Molecule: ELQ-IL-8: mutant IL-8 in which the ELR sequence at positions 4-6 (Seq. ID No. 1) is modified to glu-leu-gln (ELQ)
salt concentration eluting from heparin-agarose column [2]: 0.6 to 0.7 M | activation or attraction of neutrophils [3]: not able to activate or attract neutrophils | binding to heparin [4]: behaves in a similar fashion to native IL-8 | binding to heparan sulfate [5]: behaves in a similar fashion to native IL-8 | binding of 125I-labeled chemokine to vasculature / post-capillary endothelium [6]: Binding occurs in the same pattern as observed with native IL-8

Molecule: IL-8: 125I-labeled human IL-8
binding of 125I-labeled chemokine to vasculature / post-capillary endothelium [6]: binds preferentially to certain regions of the vasculature

Molecule: protamine chloride
inhibition of neutrophil influx [7]: significant inhibition of neutrophil influx | toxicity [8]: generally toxic agent
